{
  "source": "patent US6660530B2",
  "about": "“Methods for labeling β-amyloid plaques and neurofibrillary tangles” (The Regents of the University of California, priority 1998, dated 2003)",
  "key": {"[1]": {"tested_on": "β-amyloid plaques and neurofibrillary tangles", "assay": "PET imaging of patients after intravenous [F-18]FDDNP", "assay_type": "in vivo, human", "experimental": "A patient was placed in a tomograph to obtain brain dynamic PET images. 8.0 mCi of 2-(1.1-dicyanopropen-2-yl)-6-(2-[^18F]-fluoroethyl)-methylamino)-naphthalene ([F18]FDDNP) (specific activity: 5-12 Ci/micromol; mass:˜1 nanomol), prepared as described in Example 1(f), were injected intravenously into the arm of the patient. Dynamic acquisition data of brain images were recorded simultaneously in forty-seven brain planes for two hours.\nLabeling and detection of human β-amyloid plaques and neurofibrillary tangles in vivo were conducted using the following procedures. Ten human subjects, seven Alzheimer's diseased patients (ages 71 to 80) and three control patients (ages 62 to 82) were studied. The patients were positioned supine in an EXACT HR+962 tomograph (Siemens-CTI, Knoxville, Tenn.) with the imaging plane parallel to the orbito-meatal line. Venous catheterization was performed, and then [F-18]FDDNP (5-10 mCi) in human serum albumin (25%) was administered as a bolus via the venous catheter. Sequential emission scans were obtained beginning immediately after [F-18]FDDNP administration using the following scan sequence: six 30 second scans, four 3 minute scans, five 10 minute scans, and three 20 minute scans. Rapid venous blood sampling was performed via the indwelling catheter in two subjects for input function determination and plasma metabolite analysis.\nThe residence time shown is in reference to that in the pons, an area known to have limited involvement in Alzheimer's disease pathology. The residence time was calculated from the clearance rates of the tracer in affected regions of interest (ROI) and in the pons as:\nResidence time=[1/clearance rate for affected ROI]−[1/clearance rate for pons]\nSeparate ROIs were defined in entorhinal cortex, hippocampus, lateral temporal cortex and pons. The region with the slowest clearance rate was used as the affected ROI in the calculation of the residence time shown in FIG. 4."}, "[2]": {"tested_on": "β-amyloid plaques and neurofibrillary tangles", "assay": "In vitro fluorescence labeling of Alzheimer's disease brain tissue sections", "assay_type": "binding, human", "settings": "for visualization of neurofibrillary tangles, amyloid peptides and diffuse amyloid: all Alzheimer's disease brain specimens, fluorescence; for fluorescent labeling of amyloid plaques: sections of Alzheimer's disease patient brain, fluorescence microscope", "experimental": "(§1) A 2.1 mg/mL DDNP stock solution was prepared, which was adjusted to 8 mM in 100% ethanol. A DDNP working solution was prepared by diluting the stock solution with distilled water in a ratio of 1:100-1000 (stock solution:distilled water).\n(§2) β-amyloid 250 μM (1.25 mg/mL in distilled water) was aggregated at 37° C. for 48 hours. 5 μL were smeared on slides, air-dried and then rehydrated with distilled water. Alternatively, Aβ-positive brain tissue sections were rehydrated with distilled water. DDNP working solution was applied to each slide for 30 minutes at room temperature. The slides were washed three times for five minutes with distilled water. The slides were coverslipped with fluorescent protectant mounding media (Vectashield™, available Vector Labs., Burlingame, Calif.) and observed under a fluorescence microscope with a thioflavin S or FITC filter.\nSince DDNP and its derivatives are fluorescent, an evaluation of the ability of [F-18]FDDNP to label β-amyloid plaques and neurofibrillary tangles in vitro was also performed with the same brain specimens.\nIn FIG. 5, the central image was obtained by immunostaining a forty five micrometer cryostate temporal cortex section of an Alzheimer's disease patient incubated with AT8 (anti-phosphotau) and 10G4 (anti-AB1-15) at 1:800. Insets are adjacent sections of the same Alzheimer's disease brain specimen stained with FDDNP. Images were generated using fluorescent scanning microscopy. Green arrows indicate approximate origin of inset with reference to central immunostaining section."}, "[3]": {"tested_on": "β-amyloid plaques and neurofibrillary tangles", "assay": "In vitro autoradiography with brain specimens of Alzheimer diseased patients", "assay_type": "binding, human"}, "[4]": {"target": "T1, aggregated β-amyloid 1-40 injected into rat cortex (Homo sapiens, UniProt P05067)", "T1 construct": "an aliquot of β-amyloid 1-40 was allowed to aggregate", "T1 sequence (P05067 672-711 limits assumed)": "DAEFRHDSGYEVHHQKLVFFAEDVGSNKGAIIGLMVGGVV", "assay": "In vivo labeling of aggregated β-amyloid injected into rat cortex", "experimental": "β-amyloid 250 μM (1.25 mg/mL in distilled water) was aggregated at 37° C. for 48 hours to produce fibrils confirmed by smears. Three rats were anesthetized. 3 μL of a solution of Aβ fibrils (1.25 μg/μL) were injected unilaterally into the cortex of each rat (Bregma 0, AP-4.1 mm, ML+2.0 mm, DV-3.1 mm). Then 3 μL of phosphate buffered saline (PBS) were injected into the contralateral side of each rat brain as a vehicle control. After injection, the needle remained for 5 minutes to prevent reflux, and then the cranial hole was sealed with bone wax. […]\n[…] Additional immersion fixation of rat brain was at 4° C. overnight with PLP fixative. The rat brains were washed with PBS, saturated in 10 and 20% sucrose, and snap frozen in chilled isopentane (−70° C.) with liquid nitrogen. The brains were cryostat sectioned at […] around the needle-track and directly coverslipped with glycerol and fluorescence protectant (Vectashield™)."}, "[5]": {"assay": "Storage of stock solution in the freezer", "assay_type": "physicochemical", "settings": "stock in 100% ethanol, used at 1/100 to 1/1,000 dilutions", "experimental": "as §1"}, "β-amyloid 1-40": {"target": "T2, β-amyloid 1-40 (Homo sapiens, UniProt P05067)", "T2 construct": "an aliquot of β-amyloid 1-40 was allowed to aggregate", "T2 sequence (P05067 672-711 limits assumed)": "as above", "assay": "Labeling of aggregated β-amyloid dried onto a slide", "assay_type": "binding", "settings": "aggregated 8 days at 37° C., dried onto gelatin coated slide", "experimental": "[…] 5 μL were smeared on slides, air-dried and then rehydrated with distilled water. Alternatively, Aβ-positive brain tissue sections were rehydrated with distilled water. DDNP working solution was applied to each slide for 30 minutes at room temperature. The slides were washed three times for five minutes with distilled water. The slides were coverslipped with fluorescent protectant mounding media (Vectashield™, available Vector Labs., Burlingame, Calif.) and observed under a fluorescence microscope with a thioflavin S or FITC filter."}, "[6]": {"target": "T3, plaque in Tg2576 HuAPPsw transgenic mouse brain (Homo sapiens, UniProt P05067)", "T3 construct": "from tissue; host or cells: brain section of Tg2576 HuAPPsw transgenic mouse", "T3 sequence (P05067 672-713 limits assumed)": "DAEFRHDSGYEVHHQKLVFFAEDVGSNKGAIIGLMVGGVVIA", "assay": "In vitro fluorescence labeling of transgenic mouse brain section", "assay_type": "binding", "experimental": "as §2, with “A 2.1 mg/mL DDNP stock solution was prepared, which was adjusted to 8 mM in 100% ethanol. A DDNP working solution was prepared by diluting the stock solution with distilled water in a ratio of 1:100-1000 (stock solution:distilled water). β-amyloid” for “β-amyloid”, “(VectashieldTM,” for “(Vectashield™,”"}, "[7]": {"assay": "Standing of the free base at room temperature after neutralization (TLC)", "assay_type": "physicochemical", "settings": "light yellow oil after NaHCO3 wash", "experimental": "Dichloromethane (10 mL) was added and the solution was washed with saturated NaHCO3 solution, dried, and evaporated in vacuo. A light yellow oil was obtained, which, on standing at room temperature, turned dark red. […] Selected ^1H NMR signals after neutralization: δ2.72 (s, 3H, CH3), 3.09 and 3.35 (t, J=5 Hz, 8H, piperazine), 7.08 (s, 1H, 5-H), 8.02 (s, 1H, 1-H)."}, "[8]": {"target": "amyloid plaques in Alzheimer's brain (Homo sapiens, UniProt P05067)", "sequence (P05067 672-713 limits assumed)": "as above", "settings": "cited from earlier work"}},
  "note": "Entries after “also recorded” stand apart in the source; their conditions may differ.",
  "data": [
    {"compound": "CC(=C(C#N)C#N)c1ccc2cc(N(C)CC[18F])ccc2c1", "note": "[[F-18]FDDNP]", "values": [
      {"measurement": "estimated residence time in reference to pons", "setting": "[1]; Alzheimer's diseased patients vs control patients, affected ROI with slowest clearance rate", "result": "different from values in control patients"},
      {"measurement": "labeling of brain structures / accumulation of label", "setting": "[1]; human patient, 8.0 mCi intravenously, dynamic PET for two hours", "result": "labels brain by structures in a manner consistent with the presence of beta amyloid plaques and neurofibrillary tangles; also recorded: maximum accumulation"},
      {"measurement": "regional clearance from brain", "setting": "[1]; human, brain areas known to accumulate β-amyloid plaques and neurofibrillary tangles", "result": "slower clearance"},
      {"measurement": "crossing of the blood brain barrier", "setting": "[1]; human, intravenous injection", "result": "crosses the blood brain barrier readily in proportion to blood flow"},
      {"measurement": "retention of activity in hippocampus-amygdala-entorhinal cortex", "setting": "[1]; human, most cases, even patients with low severity of symptoms", "result": "high retention"},
      {"measurement": "visualization of neurofibrillary tangles, amyloid peptides and diffuse amyloid", "setting": "[2]", "result": "excellent visualization"},
      {"measurement": "structures stained (FIG. 5 insets)", "setting": "[2]; temporal cortex sections of an Alzheimer's disease patient, fluorescent scanning microscopy", "result": "(1) neuritic plaques, (2) diffuse plaque, (3) vascular amyloid, (4) dense plaques and tangles, and (5) dense tangles"},
      {"measurement": "binding / distribution of activity in autoradiography", "setting": "[3]", "result": "Binding was observed in hippocampus, temporal and parietal cortex"}
    ]},
    {"compound": "Thioflavin S [reference compound]", "values": [
      {"measurement": "fluorescent labeling of amyloid plaques", "setting": "[2]", "result": "labeling of a cored plaque"}
    ]},
    {"compound": "CC(=O)c1ccc2cc(N3CCN(C(=O)OC(C)(C)C)CC3)ccc2c1", "note": "[Example 1(d), tert-Butyl-4-(6-acetyl-2-naphthyl)-1-piperazinecarboxylate]", "values": [
      {"measurement": "melting point", "result": "153 to 154", "unit": "°C"}
    ]},
    {"compound": "CC(=C(C#N)C#N)c1ccc2cc(N(C)C)ccc2c1", "note": "[DDNP, 2-(1,1-dicyanopropen-2-yl)-6-dimethylaminonaphthalene]", "values": [
      {"measurement": "fluorescent labeling after formic acid treatment of section through the injection site", "setting": "[4]; rat", "result": "removes fluorescent labeling"},
      {"measurement": "in vivo fluorescent labeling of injected amyloid", "setting": "[4]; rat, 100 μL of 640 μM DDNP into the carotid artery, sacrificed after 20 minutes, brain cryosections", "result": "fluorescently labeled amyloid at the tip of the need track"},
      {"measurement": "labeling contralateral to the amyloid injection site", "setting": "[4]; rat, side where no amyloid is present", "result": "weak"},
      {"measurement": "passage of the blood brain barrier", "setting": "[4]; rats", "result": "passes the blood brain barrier"},
      {"measurement": "visualization of neurofibrillary tangles, amyloid peptides and diffuse amyloid", "setting": "[2]", "result": "excellent visualization"},
      {"measurement": "fluorescent labeling of tangles", "setting": "[2]; cortex of the brain of an Alzheimer's disease patient", "result": "weak"},
      {"measurement": "fluorescent labeling of amyloid plaques", "setting": "[2]", "result": "able to label amyloid plaques; also recorded: readily labeled amyloid deposits; also recorded: amyloid plaques labeled; also recorded: strong; also recorded: labeling of a single, large plaque with an amyloid core"},
      {"measurement": "stability of stock solution", "setting": "[5]", "result": "can be kept in the freezer for six months and still produce acceptable results"},
      {"measurement": "fluorescence of labeled aggregated β-amyloid 1-40", "setting": "β-amyloid 1-40", "result": "fibrillar fluorescence consistent with amyloid"},
      {"measurement": "melting point", "result": "154.5 to 155", "unit": "°C"},
      {"measurement": "fluorescent labeling of plaque", "setting": "[6]", "result": "labeling of a plaque"}
    ]},
    {"compound": "CC(=C(C#N)C#N)c1ccc2cc(N3CCNCC3)ccc2c1", "note": "[2-[1-(6-piperazino-2-naphthyl)ethylidene]malononitrile]", "values": [
      {"measurement": "stability on standing at room temperature", "setting": "[7]", "result": "decomposition"}
    ]},
    {"compound": "O=C(O)c1cc(/N=N/c2ccc(-c3ccc(/N=N/c4ccc(O)c(C(=O)O)c4)cc3)cc2)ccc1O", "note": "[Chrysamine G]", "values": [
      {"measurement": "ability to label amyloid plaques in Alzheimer's brain", "setting": "[8]", "result": "weak"}
    ]}
  ]
}
